Structures can show the parent of a compound that is named as a salt. Where two headings read alike, the source gives them in different places.
Tested on: SARS-CoV-2 (USA-WA1/2020) in Calu-3 cells
Assay type: cell-based
[1] = high dose (10 µM), Calu-3, 48 h
[2] = low dose (100 nM), Calu-3, 48 h

How did the “dsRNA signal, AU High” value [1] turn out when C[C@@H]1O[C@@H](OC[C@H]2O[C@@H](Oc3cc(O)c4c(=O)cc(-c5ccc(O)cc5)oc4c3)[C@H](O[C@@H]3O[C@@H](C)[C@H](O)[C@@H](O)[C@H]3O)[C@@H](O)[C@@H]2O)[C@H](O)[C@H](O)[C@H]1O [Ligustroflavone] was run?
The value was 4049.2 AU.

And the “dsRNA signal, AU Low” value [2]?
Its value is 6040.1 AU.

Which “Reduction of infection in representative images” value (Figure 4A) does the source give for Cc1c(F)cc(C(=O)NC2CC2)cc1-c1ccc(C(=O)NCC(C)(C)C)cn1 [Losmapimod, reference compound] here?
Its value is “poor activity”.

Which “dsRNA signal, AU High” value [1] does the source give for Cn1cnc2c(F)c(Nc3ccc(Br)cc3F)c(C(=O)NOCCO)cc21 [MEK162 (ARRY-162, ARRY-438162)] here?
Its value is 32104.0 AU.

And the “dsRNA signal, AU Low” value [2]?
The value was 54835.5 AU.

COCCNCc1ccc(-c2cc3nccc(Oc4ccc(NC(=S)NC(=O)Cc5ccc(F)cc5)cc4F)c3s2)nc1 [MGCD-265] was tested. Which “dsRNA signal, AU High” value [1] did it give?
The value was 4249.4 AU.

And the “dsRNA signal, AU Low” value [2]?
The value was 42710.5 AU.

Which results are given for O=[N+]([O-])c1ccc(Nc2nc(N3CCOCC3)nc(N3CCOCC3)n2)cc1 [MHY1485]?
dsRNA signal, AU High [1]: 4962.4 AU; dsRNA signal, AU Low [2]: 35655.5 AU

CN(C[C@@H]1COCCO1)S(=O)(=O)Nc1ccc2ccc3ncc(-c4cnn(C)c4)cc3c(=O)c2c1 [MK-2461] was tested. Which “dsRNA signal, AU High” value [1] did it give?
Its value is 19211.6 AU.

What about the “dsRNA signal, AU Low” value [2] of the same molecule?
Its value is 2226.3 AU.

O=C(O)[C@]1(Cc2cccc(Nc3nccs3)n2)CC[C@@H](Oc2cccc(Cl)c2F)CC1 [MK-5108 (VX-689)] was tested. Which “dsRNA signal, AU High” value [1] did it give?
The value was 3258.6 AU.

And the “dsRNA signal, AU Low” value [2]?
Its value is 34308.8 AU.

For COc1ccc(-c2cnc3c(-c4cccc5ncccc45)cnn3c2)cc1 [ML347], which “dsRNA signal, AU High” value [1] is on record?
The value was 0.0 AU.

And the “dsRNA signal, AU Low” value [2]?
The value was 58224.3 AU.

How did the “dsRNA signal, AU High” value [1] turn out when Cl.O=S(=O)(c1cccc2c(I)cccc12)N1CCCNCC1 [ML-7 hydrochloride] was run?
The value was 19324.6 AU.

And the “dsRNA signal, AU Low” value [2]?
Its value is 18346.9 AU.

What does the source list for COc1c(Cl)cc2c([nH]c3cnccc32)c1NC(=O)c1cccnc1C [MLN120B]?
dsRNA signal, AU High [1]: 3021.2 AU; dsRNA signal, AU Low [2]: 0.0 AU

How did the “dsRNA signal, AU High” value [1] turn out when O=C(O)c1ccc(Nc2ncc3c(n2)-c2ccc(Cl)cc2C(c2c(F)cccc2F)=NC3)cc1 [MLN8054] was run?
Its value is 4632.4 AU.

What about the “dsRNA signal, AU Low” value [2] of the same molecule?
Its value is 9929.7 AU.

Which results are given for COc1cc(Nc2ncc3c(n2)-c2ccc(Cl)cc2C(c2c(F)cccc2OC)=NC3)ccc1C(=O)O [MLN8237 (Alisertib)]?
dsRNA signal, AU High [1]: 9976.5 AU; dsRNA signal, AU Low [2]: 32491.8 AU

Which results are given for O=[N+]([O-])/C=C/c1ccc2c(c1)OCO2 [MNS]?
dsRNA signal, AU High [1]: 1958.5 AU; dsRNA signal, AU Low [2]: 51870.8 AU

What does the source list for CCc1ccc(C(=O)COc2ccc(CC3SC(=O)NC3=O)cc2)nc1 (stereo not shown) [MSDC-0160]?
dsRNA signal, AU High [1]: 16528.8 AU; dsRNA signal, AU Low [2]: 15455.5 AU

Which “dsRNA signal, AU High” value [1] does the source give for Nc1ccc(O)c(C(=O)O)c1 [Mesalamine] here?
Its value is 17187.6 AU.

What about the “dsRNA signal, AU Low” value [2] of the same molecule?
The value was 2129.6 AU.

With CN(C)C(=N)N=C(N)N [Metformin HCl] as the molecule, how does the “dsRNA signal, AU High” value [1] read?
The value was 10385.6 AU.

And the “dsRNA signal, AU Low” value [2]?
Its value is 10840.1 AU.

Which results are given for Cc1cc(=O)[nH]c(=S)[nH]1 [Methylthiouracil]?
dsRNA signal, AU High [1]: 61524.3 AU; dsRNA signal, AU Low [2]: 55636.1 AU

For CCCCCCCCCCCCCCCCOP(=O)([O-])OCC[N+](C)(C)C [Miltefosine], which “dsRNA signal, AU High” value [1] is on record?
Its value is 27276.6 AU.

And the “dsRNA signal, AU Low” value [2]?
The value was 36330.6 AU.

Which “dsRNA signal, AU High” value [1] does the source give for O=C1c2c(O)ccc(O)c2C(=O)c2c(NCCNCCO)ccc(NCCNCCO)c21 [Mitoxantrone HCl] here?
Its value is 48235.0 AU.

And the “dsRNA signal, AU Low” value [2]?
The value was 23848.1 AU.

How did the “dsRNA signal, AU High” value [1] turn out when COC(=O)c1c2c(c3ccccc3c1O)OC(C)(C)C=C2 [Mollugin] was run?
The value was 394.8 AU.

What about the “dsRNA signal, AU Low” value [2] of the same molecule?
Its value is 5157.1 AU.

Which results are given for COc1cc(N2CCC(O)CC2)ccc1Nc1cc(Nc2ccccc2S(=O)(=O)C(C)C)c2cc[nH]c2n1 [Mps1-IN-1]?
dsRNA signal, AU High [1]: 7290.6 AU; dsRNA signal, AU Low [2]: 34349.9 AU

For FC(F)(F)c1ccc(/C=C/c2nc(COc3ccc(CCCCn4ccnn4)cc3)co2)cc1 [Mubritinib (TAK 165)], which “dsRNA signal, AU High” value is on record?
The value was 19342.6.

What about the “dsRNA signal, AU Low” value of the same molecule?
Its value is 48533.2.

What does the source list for CC(=O)NCCc1c[nH]c2ccc(O)cc12 [N-Acetylserotonin]?
dsRNA signal, AU High [1]: 219.3 AU; dsRNA signal, AU Low [2]: 53222.8 AU

O=[N+]([O-])c1ccc(Sc2cccc[n+]2[O-])c2nonc12 [NSC228155] was tested. Which “dsRNA signal, AU High” value [1] did it give?
Its value is 18547.9 AU.

And the “dsRNA signal, AU Low” value [2]?
Its value is 54998.4 AU.

For CCN(CC)CCCC(C)Nc1nc(C)cc(Nc2ccc3nc(C)cc(N)c3c2)n1 (stereo not shown) [NSC 23766], which “dsRNA signal, AU High” value [1] is on record?
Its value is 10192.1 AU.

What about the “dsRNA signal, AU Low” value [2] of the same molecule?
The value was 15408.3 AU.

Which “dsRNA signal, AU High” value [1] does the source give for Oc1cc(CNC(=S)/C=C/c2cc(O)c(O)c(Br)c2)cc(O)c1O [NT157] here?
The value was 7372.8 AU.

And the “dsRNA signal, AU Low” value [2]?
Its value is 11852.6 AU.

What does the source list for O=C(Nc1nc2ccc(NC(=O)C34CC5CC(CC(C5)C3)C4)cc2s1)c1ccccc1 [NVP 231]?
dsRNA signal, AU High [1]: 1973.6 AU; dsRNA signal, AU Low [2]: 14037.2 AU

Which “dsRNA signal, AU High” value [1] does the source give for Nc1ncnc2c1c(-c1cccc(OCc3ccccc3)c1)cn2[C@H]1C[C@@H](CN2CCC2)C1 [NVP-AEW541] here?
The value was 1274.0 AU.

What about the “dsRNA signal, AU Low” value [2] of the same molecule?
Its value is 19640.6 AU.

Cl.Nc1cc(C(F)(F)F)c(-c2cc(N3CCOCC3)nc(N3CCOCC3)n2)cn1 [NVP-BKM120 Hydrochloride] was tested. Which “dsRNA signal, AU High” value [1] did it give?
Its value is 0.0 AU.

And the “dsRNA signal, AU Low” value [2]?
The value was 56514.5 AU.

Fc1cc(-c2cccc3ncc(-c4cnn(C5CCNCC5)c4)nc23)cc(F)c1CN1CCOCC1 [NVP-BSK805 2HCl] was tested. Which “dsRNA signal, AU High” value [1] did it give?
The value was 1810.2 AU.

And the “dsRNA signal, AU Low” value [2]?
Its value is 2038.5 AU.

For Cn1cc(-c2ccc3ncc(Cc4ccc5ncccc5c4)n3n2)cn1 [NVP-BVU972], which “dsRNA signal, AU High” value [1] is on record?
Its value is 9035.4 AU.

And the “dsRNA signal, AU Low” value [2]?
The value was 52705.1 AU.

CS(=O)(=O)N1CCC(NC(=O)c2[nH]ncc2NC(=O)c2c(Cl)cccc2Cl)CC1 [NVP-LCQ195] was tested. Which “dsRNA signal, AU High” value [1] did it give?
Its value is 6040.0 AU.

What about the “dsRNA signal, AU Low” value [2] of the same molecule?
The value was 35350.1 AU.

How did the “dsRNA signal, AU High” value [1] turn out when CN1C(=O)C(Cc2c[nH]c3ccccc23)NC1=S (stereo not shown) [Necrostatin-1] was run?
The value was 12590.5 AU.

What about the “dsRNA signal, AU Low” value [2] of the same molecule?
Its value is 10276.4 AU.

How did the “dsRNA signal, AU High” value [1] turn out when CCOc1cc2ncc(C#N)c(Nc3ccc(OCc4ccccn4)c(Cl)c3)c2cc1NC(=O)/C=C/CN(C)C [Neratinib (HKI-272)] was run?
The value was 1101.0 AU.

What about the “dsRNA signal, AU Low” value [2] of the same molecule?
The value was 11881.7 AU.

Which “dsRNA signal, AU High” value [1] does the source give for Cc1cn(-c2cc(NC(=O)c3ccc(C)c(Nc4nccc(-c5cccnc5)n4)c3)cc(C(F)(F)F)c2)cn1.Cl.O [Nilotinib monohydrochloride monohydrate] here?
The value was 2759.7 AU.

And the “dsRNA signal, AU Low” value [2]?
The value was 14574.2 AU.

Which “dsRNA signal, AU High” value [1] does the source give for Cc1cn(-c2cc(NC(=O)c3ccc(C)c(Nc4nccc(-c5cccnc5)n4)c3)cc(C(F)(F)F)c2)cn1 [Nilotinib(AMN-107)] here?
The value was 28653.4 AU.

And the “dsRNA signal, AU Low” value [2]?
The value was 33622.0 AU.

With Nc1nc(N)c(N=O)c(OCC2CCCCC2)n1 [Nu 6027] as the molecule, how does the “dsRNA signal, AU High” value [1] read?
Its value is 2596.9 AU.

What about the “dsRNA signal, AU Low” value [2] of the same molecule?
Its value is 10731.2 AU.

Which results are given for NCC(=O)Nc1ccc(-n2nc(C(F)(F)F)cc2-c2ccc3c(ccc4ccccc43)c2)cc1 [OSU-03012 (AR-12)]?
dsRNA signal, AU High [1]: 17565.3 AU; dsRNA signal, AU Low [2]: 17813.3 AU

What does the source list for CC1(C)OC(=O)C=C[C@]2(C)[C@H]3CC[C@@]4(C)[C@H](c5ccoc5)OC(=O)[C@H]5O[C@]54[C@]3(C)C(=O)C[C@@H]12 [Obacunone]?
dsRNA signal, AU High [1]: 22534.9 AU; dsRNA signal, AU Low [2]: 63087.7 AU

With C=C1C(=O)[C@]23[C@H](O)[C@H]1CC[C@H]2[C@@]12CO[C@]3(O)[C@@H](O)[C@@H]1C(C)(C)CC[C@@H]2O [Oridonin] as the molecule, how does the “dsRNA signal, AU High” value [1] read?
The value was 6061.2 AU.

And the “dsRNA signal, AU Low” value [2]?
The value was 25375.1 AU.

From paper PMC12142043, “Cell-based high-content approach for SARS-CoV-2 neutralization identifies unique monoclonal antibodies and PI3K pathway inhibitors” (Frontiers in Cell and Developmental Biology, 2025)
